# According to US7195879B2, “Method for identifying modulators of NAv ion channels” (priority 2002, dated 2007):
# “And” between values parts separate entries of the source, which are not always exact repeats. Equal entries are not always repeated. “Also recorded” adds a separate entry of the source. Where two headings read alike, the source gives them in different places.
# Legend:
# [1] = target: Nav1.3 (Homo sapiens, UniProt Q9NY46); assay type: cell-based
# [2] = tested on: Nav; assay type: cell-based, human
# [3] = tested on: IMR-32 cells grown in the absence of RA (inward currents); assay type: cell-based, human
# [4] = tested on: IMR-32 cells grown in the presence of RA (fast transient inward currents); assay: Whole cell voltage clamp of inward currents, IMR-32 cells grown in RA; assay type: cell-based, human
# Method: The endogenous voltage gated Na currents expressed in IMR-32 cells grown in the presence or absence of 1 μM RA were measured using standard whole cell voltage clamp techniques (Hamill et al. (1981). The whole cell patch clamp technique was used to record voltage-activated currents from IMR-32 cells maintained for two or more days on 12 mm glass coverslips in the presence or absence of RA (1 μM). Cells were visualized using a Nikon Diaphot 300 with DIC Nomarski optics. The standard physiological saline (1 Ca tyrodes (“Tyrodes”) contains: 130 mM NaCl, 4 mM KCl, 1 mM CaCl2, 1.2 mM MgCl2, and 10 mM hemi-Na-HEPES (pH 7.3, 295–300 mOsm as measured using a Wescor 5500 vapor-pressure (Wescor, Inc., Logan, Utah)). Recording electrodes are fabricated from borosilicate capillary tubing (R6; Garner Glass, Claremont, Calif.), the tips are coated with dental periphery wax (Miles Laboratories, South Bend, Ind.), and have resistances of 1 to 2 MΩ when containing an intracellular saline designed to block outward currents: 140 mM CsCl, 0.483 mM CaCl2, 2 mM MgCl2, 10 mM HEPES free acid and 1 mM K4-BAPTA (100 nM free Ca^+2); pH 7.4, with dextrose added to achieve 290 mOsm). Current and voltage signals are detected and filtered at 2 kHz with an Axopatch 1D patch-clamp amplifier (Axon Instruments, Foster City, Calif.), digitally recorded with a DigiData 1200B laboratory interface (Axon Instruments) and PC compatible computer system and stored on magnetic disk for off-line analysis. Data acquisition and analysis are performed with PClamp software.
# The total membrane capacitance (Cm) was determined as the difference between the maximum current after a 30 mV hyperpolarizing voltage ramp from −100 mV (generated at a rate of 10 mV/ms) and the steady state current at the final potential (−130 mV) (Dubin et al. (1999)).
# Families of voltage-gated inward currents were obtained using a standard P/−4 protocol from −100 mV. Depolarizing voltage steps in increments of 10 mV were applied from a holding potential of −100 mV. Steady state inactivation was elicited by measuring the peak current at 0 mV after a 500 msec pre-pulse voltage between −140 and −20 mV in increments of 10 mV.
# [5] = target: Nav1.7 (Homo sapiens, UniProt Q15858)
# Nav1.7, sequence (Q15858 whole entry, looked up): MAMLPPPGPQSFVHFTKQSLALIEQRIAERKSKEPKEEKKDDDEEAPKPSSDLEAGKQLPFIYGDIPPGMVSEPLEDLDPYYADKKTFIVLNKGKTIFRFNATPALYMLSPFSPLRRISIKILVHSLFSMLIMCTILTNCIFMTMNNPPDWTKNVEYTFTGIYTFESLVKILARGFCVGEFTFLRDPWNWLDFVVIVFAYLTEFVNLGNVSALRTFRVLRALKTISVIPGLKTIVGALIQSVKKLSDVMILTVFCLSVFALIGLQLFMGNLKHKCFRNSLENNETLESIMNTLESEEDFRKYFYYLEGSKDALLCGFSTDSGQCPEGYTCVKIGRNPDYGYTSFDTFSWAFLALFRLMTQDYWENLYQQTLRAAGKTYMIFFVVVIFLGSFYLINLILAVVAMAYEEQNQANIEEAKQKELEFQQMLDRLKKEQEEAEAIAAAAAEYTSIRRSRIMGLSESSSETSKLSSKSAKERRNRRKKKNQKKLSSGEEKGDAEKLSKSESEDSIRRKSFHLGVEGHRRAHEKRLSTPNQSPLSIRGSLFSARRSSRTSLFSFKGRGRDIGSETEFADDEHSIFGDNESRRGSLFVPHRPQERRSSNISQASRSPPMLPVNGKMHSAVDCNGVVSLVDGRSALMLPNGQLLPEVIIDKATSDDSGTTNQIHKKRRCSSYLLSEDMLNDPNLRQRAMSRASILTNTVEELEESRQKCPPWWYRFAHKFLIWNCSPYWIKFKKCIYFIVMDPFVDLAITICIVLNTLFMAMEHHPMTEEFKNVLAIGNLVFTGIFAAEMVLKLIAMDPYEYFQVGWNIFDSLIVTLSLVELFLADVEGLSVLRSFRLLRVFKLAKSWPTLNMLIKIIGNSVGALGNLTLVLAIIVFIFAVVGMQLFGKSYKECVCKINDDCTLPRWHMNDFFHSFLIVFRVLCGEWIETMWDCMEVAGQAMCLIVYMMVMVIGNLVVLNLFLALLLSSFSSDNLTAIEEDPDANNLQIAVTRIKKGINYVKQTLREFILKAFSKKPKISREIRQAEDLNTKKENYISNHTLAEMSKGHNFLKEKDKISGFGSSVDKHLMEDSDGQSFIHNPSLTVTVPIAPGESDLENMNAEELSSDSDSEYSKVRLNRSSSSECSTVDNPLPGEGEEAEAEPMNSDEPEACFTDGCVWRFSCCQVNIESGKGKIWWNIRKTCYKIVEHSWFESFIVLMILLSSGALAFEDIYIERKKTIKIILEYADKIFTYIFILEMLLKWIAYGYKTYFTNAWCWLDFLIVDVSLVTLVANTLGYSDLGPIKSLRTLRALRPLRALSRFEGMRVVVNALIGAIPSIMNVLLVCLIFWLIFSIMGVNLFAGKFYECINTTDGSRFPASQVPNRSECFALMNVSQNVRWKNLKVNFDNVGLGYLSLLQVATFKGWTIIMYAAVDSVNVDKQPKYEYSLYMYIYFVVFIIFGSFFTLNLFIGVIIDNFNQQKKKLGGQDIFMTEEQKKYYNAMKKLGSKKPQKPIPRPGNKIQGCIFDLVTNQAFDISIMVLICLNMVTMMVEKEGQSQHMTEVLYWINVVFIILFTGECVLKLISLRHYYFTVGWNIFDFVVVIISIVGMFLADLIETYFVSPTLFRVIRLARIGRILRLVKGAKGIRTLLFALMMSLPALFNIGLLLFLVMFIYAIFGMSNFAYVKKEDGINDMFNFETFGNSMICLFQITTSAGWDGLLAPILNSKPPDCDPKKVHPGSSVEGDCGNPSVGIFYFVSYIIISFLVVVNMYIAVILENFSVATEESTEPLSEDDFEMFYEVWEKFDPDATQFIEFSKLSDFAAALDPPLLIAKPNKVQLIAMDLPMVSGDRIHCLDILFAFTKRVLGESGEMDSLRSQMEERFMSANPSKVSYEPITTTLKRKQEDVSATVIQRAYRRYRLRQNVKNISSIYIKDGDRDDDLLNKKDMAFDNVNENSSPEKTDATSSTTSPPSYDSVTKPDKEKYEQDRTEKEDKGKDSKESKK
# [6] = tested on: TTX-R inward current (calcium currents); assay: Whole cell voltage clamp, block of TTX-R inward current in IMR-32 cells; assay type: cell-based, human; conditions: 5 μM
# Nav1.3, sequence (Q9NY46 whole entry, looked up): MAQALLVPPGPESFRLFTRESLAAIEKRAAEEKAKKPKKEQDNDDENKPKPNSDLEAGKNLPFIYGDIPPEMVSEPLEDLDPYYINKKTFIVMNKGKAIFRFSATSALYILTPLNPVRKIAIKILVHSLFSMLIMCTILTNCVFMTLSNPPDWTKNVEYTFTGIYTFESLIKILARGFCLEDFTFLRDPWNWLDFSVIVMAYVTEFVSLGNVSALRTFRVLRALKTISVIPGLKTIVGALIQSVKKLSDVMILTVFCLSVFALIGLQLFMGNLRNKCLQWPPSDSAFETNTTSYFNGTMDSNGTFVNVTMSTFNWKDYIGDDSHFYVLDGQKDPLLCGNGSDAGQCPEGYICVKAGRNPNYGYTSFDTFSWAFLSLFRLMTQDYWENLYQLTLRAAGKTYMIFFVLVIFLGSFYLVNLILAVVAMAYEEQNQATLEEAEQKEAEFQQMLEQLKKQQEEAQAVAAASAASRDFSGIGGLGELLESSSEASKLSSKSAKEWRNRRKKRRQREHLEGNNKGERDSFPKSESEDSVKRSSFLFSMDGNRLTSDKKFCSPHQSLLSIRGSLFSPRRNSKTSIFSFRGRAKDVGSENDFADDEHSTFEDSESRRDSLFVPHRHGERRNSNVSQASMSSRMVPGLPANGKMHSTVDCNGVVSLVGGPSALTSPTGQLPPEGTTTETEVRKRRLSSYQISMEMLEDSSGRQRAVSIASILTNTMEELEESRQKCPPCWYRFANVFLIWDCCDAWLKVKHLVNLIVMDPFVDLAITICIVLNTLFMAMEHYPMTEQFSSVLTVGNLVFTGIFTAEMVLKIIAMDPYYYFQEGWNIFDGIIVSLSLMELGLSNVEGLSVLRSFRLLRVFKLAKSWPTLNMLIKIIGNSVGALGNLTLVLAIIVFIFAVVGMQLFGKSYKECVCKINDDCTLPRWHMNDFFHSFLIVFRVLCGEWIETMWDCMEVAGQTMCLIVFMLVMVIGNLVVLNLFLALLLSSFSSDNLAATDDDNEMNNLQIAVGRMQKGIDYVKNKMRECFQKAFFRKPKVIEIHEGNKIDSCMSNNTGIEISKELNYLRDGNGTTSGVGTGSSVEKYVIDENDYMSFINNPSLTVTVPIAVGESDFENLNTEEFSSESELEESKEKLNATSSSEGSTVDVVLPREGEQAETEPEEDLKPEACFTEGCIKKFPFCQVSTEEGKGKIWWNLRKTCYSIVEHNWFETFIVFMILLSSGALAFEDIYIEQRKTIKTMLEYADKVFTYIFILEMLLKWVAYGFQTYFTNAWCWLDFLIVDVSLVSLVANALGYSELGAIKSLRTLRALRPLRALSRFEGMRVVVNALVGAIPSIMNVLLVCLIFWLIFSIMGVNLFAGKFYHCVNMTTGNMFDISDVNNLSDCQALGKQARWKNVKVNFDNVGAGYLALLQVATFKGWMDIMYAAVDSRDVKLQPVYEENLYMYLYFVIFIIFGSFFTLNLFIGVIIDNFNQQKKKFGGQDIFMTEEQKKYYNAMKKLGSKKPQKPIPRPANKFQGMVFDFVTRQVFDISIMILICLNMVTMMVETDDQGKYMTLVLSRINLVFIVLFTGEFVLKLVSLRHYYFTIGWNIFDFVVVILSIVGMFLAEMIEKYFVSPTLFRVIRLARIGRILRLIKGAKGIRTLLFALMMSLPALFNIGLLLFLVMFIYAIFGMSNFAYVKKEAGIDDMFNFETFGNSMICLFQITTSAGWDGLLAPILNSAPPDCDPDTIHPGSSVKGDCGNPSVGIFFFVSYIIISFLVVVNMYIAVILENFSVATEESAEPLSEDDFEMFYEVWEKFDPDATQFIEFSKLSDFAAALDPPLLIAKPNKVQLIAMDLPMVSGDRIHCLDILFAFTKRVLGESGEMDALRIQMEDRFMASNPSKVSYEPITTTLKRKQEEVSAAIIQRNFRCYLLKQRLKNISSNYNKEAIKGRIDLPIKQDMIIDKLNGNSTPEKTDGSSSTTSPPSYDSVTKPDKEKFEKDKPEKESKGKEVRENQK
structure (smiles),measurement,setting,value
"NC1=N[C@H](O)[C@H]2[C@H]3O[C@]4(O)O[C@@H]([C@@H](O)[C@@]2(N1)[C@@H]4O)[C@]3(O)CO [TTX, tetrodotoxin]",block of veratridine-induced depolarization / fluorescence signal,[1],completely suppressed; also recorded: completely blocked; also recorded: nearly completely blocks
same,proportion of the veratridine-induced response blocked,[1],90% and 88% and 89%
same,steepness of the dose response relationship,[1],0.76 and 0.89 and 0.79
same,IC50,"[1]; read-out: IC50, block of veratridine-stimulated sodium influx",3.3 nM
same,IC50,[1]; read-out: concentration to half block the veratridine-induced increase in fluorescence (IC50),2.8 nM
same,effect on FRET signal,[2],dose dependent decreases
same,"TTX-S component of inward currents, proportion of total current",[3],17+/−6%
same,block of inward currents,[3],only partially blocked
same,"TTX-S component of inward currents, proportion of total current",[4],36+/−7%
same,block of inward currents,[4],92%
same,effect on inward currents,[4],little effect
same,block of veratridine induced signal,[5],nearly completely blocks
same,proportion of the veratridine-induced response blocked,[5],82% and 80%
same,steepness of the dose response relationship,[5],1.0 and 1.5
"CC1=C(/C=C/C(C)=C\C=C\C(C)=C\C(=O)O)C(C)(C)CCC1 [RA, 9-cis RA]",peak inward currents,"[4]; cells grown for more than two weeks in RA, tested in Tyrodes, n=24, vs -43.3 without RA, p<0.02",−75.3+/−10.6 pA/pF
COCC(=O)O[C@]1(CCN(C)CCCc2nc3ccccc3[nH]2)CCc2cc(F)ccc2[C@@H]1C(C)C [mibefradil],block of the TTX-R current,[6],in part
